Earlier results as cited in patent EP0228223A2, “Non-irritating suprofen solution” (Cilag AG, priority 1985, dated 1987).
Entries after “also recorded” stand apart in the source; their conditions may differ.

Legend:
[1] = preparation swallowed; appears only seconds after swallowing, disappears within minutes

solubility in organic solvents and base (methanol, ethanol, chloroform, acetone, polyethylene glycol and 1.0 N sodium hydroxide) | SMILES | irritation in the throat [1] | solubility in water (water)
freely soluble | CC(C(=O)O)c1ccc(C(=O)c2cccs2)cc1 (stereo not shown) [Suprofen, p-(2-thenoyl)hydratropic acid] | very characteristic irritation | poorly soluble; also recorded: very slightly soluble
– | CC(C(=O)O)c1ccc(C(=O)c2cccs2)cc1 (stereo not shown) [suprofen-sodium] | irritation effect occurs | –
